From ChEMBL document CHEMBL5500426, “Directly Suppressing MYC Function with Novel Alkynyl-Substituted Phenylpyrazole Derivatives that Induce Protein Degradation and Perturb MYC/MAX Interaction” (J Med Chem, 2024)
The source made the active and inactive calls. The calls are words filed in the database; no cut-off is given here.

Legend:
[1] = tested on: HCT-116; test: Antiproliferative activity against human HCT-116 cells assessed as inhibition of cell growth incubated for 72 hrs by MTT assay; format: functional, cell-based; details: HCT-116, 72 h
[2] = Half life in Sprague-Dawley rat at 2 mg/kg,iv administration by LC-MS/MS analysis; format: ADME, organism-based; details: in vivo
[3] = tested on: PC-3; test: Antitumor activity against human PC-3 cells xenografted in BALB/C mouse assessed as reduction in tumor volume at ip administrated daily for 21 consecutive days; format: functional, organism-based
[4] = Toxicity in FVB mouse implanted with mouse Myc-CaP cells assessed as histopathological change in lung at 10 to 50 mg/kg,ip administrated daily for 14 consecutive days by hematoxylin and eosin staining based microscopic analysis; format: organism-based; details: in vivo, dose 10-50 mg/kg
[5] = target: c-Myc/c-Max (Homo sapiens) (UniProt P01106+P61244); test: Inhibition of MYC/MAX protein-protein interaction in human PC-3 cells at 10 uM incubated for 1 hr by Co-immunoprecipitation based immunoblotting analysis; format: cell-based
Sequence of c-Myc/c-Max (Homo sapiens) (P01106 whole entry): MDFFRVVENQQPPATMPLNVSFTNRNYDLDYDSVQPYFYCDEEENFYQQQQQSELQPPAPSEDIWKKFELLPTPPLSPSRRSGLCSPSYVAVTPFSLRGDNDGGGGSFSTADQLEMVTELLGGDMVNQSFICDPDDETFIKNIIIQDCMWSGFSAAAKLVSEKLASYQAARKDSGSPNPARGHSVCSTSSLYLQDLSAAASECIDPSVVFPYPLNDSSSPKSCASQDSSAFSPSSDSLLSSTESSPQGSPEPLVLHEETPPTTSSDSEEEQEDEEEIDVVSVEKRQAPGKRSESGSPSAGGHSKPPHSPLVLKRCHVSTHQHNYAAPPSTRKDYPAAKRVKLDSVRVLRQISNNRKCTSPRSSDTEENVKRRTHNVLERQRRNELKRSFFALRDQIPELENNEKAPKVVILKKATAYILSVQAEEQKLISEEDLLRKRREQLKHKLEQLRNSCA
Sequence of c-Myc/c-Max (Homo sapiens) (P61244 2-160 partner limits assumed): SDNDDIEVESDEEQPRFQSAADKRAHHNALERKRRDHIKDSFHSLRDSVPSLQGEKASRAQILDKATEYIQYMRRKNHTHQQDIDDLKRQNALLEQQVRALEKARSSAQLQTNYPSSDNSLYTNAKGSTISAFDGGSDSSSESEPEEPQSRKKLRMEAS

[6] = Cytotoxicity against human GES1 cells assessed as inhibition of cell growth incubated for 72 hrs by MTT assay; format: toxicity, cell-based
[7] = tested on: Myc-CaP; test: Antitumor activity against mouse Myc-CaP cells implanted in FVB mouse assessed as tumor growth inhibition at 30 mg/kg,ip administrated daily for 14 consecutive days relative to control; format: functional; details: read-out: TGI
[8] = tested on: PC-3; test: Antiproliferative activity against human PC-3 cells assessed as inhibition of cell growth incubated for 72 hrs by MTT assay; format: functional, cell-based; details: PC-3, 72 h
[9] = tested on: PC-3; test: Antitumor activity against human PC-3 cells xenografted in BALB/C mouse assessed as tumor growth inhibition at 75 mg/kg,ip administrated daily for 21 consecutive days relative to control; format: functional; details: read-out: TGI
[10] = target: Protein max (Homo sapiens) (UniProt P61244); test: Binding affinity to MAX in human PC-3 cells assessed as effect on protein thermal stabilization at 10 uM with 37 to 58 degreeC incubated for 1 hr by CETSA based Western blotting analysis; format: cell-based
Sequence of Protein max (Homo sapiens) (P61244 whole entry): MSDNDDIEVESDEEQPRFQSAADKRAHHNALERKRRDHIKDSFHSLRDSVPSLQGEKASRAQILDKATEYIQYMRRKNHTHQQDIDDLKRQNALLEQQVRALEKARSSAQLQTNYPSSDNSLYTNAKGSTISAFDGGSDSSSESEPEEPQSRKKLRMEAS

[11] = Toxicity in BALB/C mouse xenografted with human PC-3 cells assessed as histopathological change in liver at 50 to 100 mg/kg,ip administrated daily for 21 consecutive days by hematoxylin and eosin staining based microscopic analysis; format: organism-based; details: in vivo, dose 50-100 mg/kg
[12] = Bioavailability in Sprague-Dawley rat at 2 mg/kg,iv administration by LC-MS/MS analysis; format: ADME, organism-based; details: in vivo
[13] = target: Myc proto-oncogene protein (Homo sapiens) (UniProt P01106); test: Inhibition of MYC in human PC-3 cells assessed as downregulation of MYC expression at 1 uM incubated for 24 hrs by Western blotting analysis relative to control; format: cell-based
Sequence of Myc proto-oncogene protein (Homo sapiens) (P01106 whole entry): as the sequence (P01106 whole entry) above

[14] = target: Myc proto-oncogene protein (Homo sapiens) (UniProt P01106); test: Inhibition of MYC in human PC-3 cells assessed as downregulation of MYC expression at 10 uM incubated for 24 hrs in presence of proteasome inhibitor MG132 by Western blotting analysis; format: cell-based
[15] = tested on: Myc-CaP; test: Antitumor activity against mouse Myc-CaP cells implanted in FVB mouse assessed as tumor growth inhibition at 10 mg/kg,ip administrated daily for 14 consecutive days relative to control; format: functional; details: read-out: TGI
[16] = AUC (0 to t) in Sprague-Dawley rat at 2 mg/kg,iv administration by LC-MS/MS analysis; format: ADME, organism-based; details: in vivo
[17] = tested on: Myc-CaP; test: Antitumor activity against mouse Myc-CaP cells implanted in FVB mouse assessed as reduction in tumor weight at ip administrated daily for 14 consecutive days; format: functional, organism-based
[18] = Toxicity in FVB mouse implanted with mouse Myc-CaP cells assessed as histopathological change in liver at 10 to 50 mg/kg,ip administrated daily for 14 consecutive days by hematoxylin and eosin staining based microscopic analysis; format: organism-based; details: in vivo, dose 10-50 mg/kg
[19] = Toxicity in FVB mouse implanted with mouse Myc-CaP cells assessed as body weight loss at 10 to 50 mg/kg,ip administrated daily for 14 consecutive days; format: organism-based; details: in vivo, dose 10-50 mg/kg
[20] = tested on: SK-OV-3; test: Antiproliferative activity against human SK-OV-3 cells assessed as inhibition of cell growth incubated for 72 hrs by MTT assay; format: functional, cell-based; details: SK-OV-3, 72 h
[21] = Toxicity in BALB/C mouse xenografted with human PC-3 cells assessed as body weight loss at 50 to 100 mg/kg,ip administrated daily for 21 consecutive days; format: organism-based; details: in vivo, dose 50-100 mg/kg
[22] = Toxicity in FVB mouse implanted with mouse Myc-CaP cells assessed as histopathological change in heart at 10 to 50 mg/kg,ip administrated daily for 14 consecutive days by hematoxylin and eosin staining based microscopic analysis; format: organism-based; details: in vivo, dose 10-50 mg/kg
[23] = tested on: MDA-MB-231; test: Antiproliferative activity against human MDA-MB-231 cells assessed as inhibition of cell growth incubated for 72 hrs by MTT assay; format: functional, cell-based; details: MDA-MB-231, 72 h
[24] = tested on: PC-3; test: Antitumor activity against human PC-3 cells xenografted in BALB/C mouse assessed as tumor growth inhibition at 50 mg/kg,ip administrated daily for 21 consecutive days relative to control; format: functional; details: read-out: TGI
[25] = tested on: Myc-CaP; test: Antiproliferative activity against mouse Myc-CaP cells assessed as inhibition of cell growth incubated for 72 hrs by MTT assay; format: functional, cell-based
[26] = tested on: MV4-11; test: Antiproliferative activity against human MV4-11 cells assessed as inhibition of cell growth incubated for 72 hrs by MTT assay; format: functional, cell-based; details: MV4-11, 72 h
[27] = AUC (0 to t) in Sprague-Dawley rat at 10 mg/kg,ip administration by LC-MS/MS analysis; format: ADME, organism-based; details: in vivo
[28] = tested on: MDA-MB-468; test: Antiproliferative activity against human MDA-MB-468 cells assessed as inhibition of cell growth incubated for 72 hrs by MTT assay; format: functional, cell-based; details: MDA-MB-468, 72 h
[29] = tested on: Myc-CaP; test: Antitumor activity against mouse Myc-CaP cells implanted in FVB mouse assessed as tumor growth inhibition at 50 mg/kg,ip administrated daily for 14 consecutive days relative to control; format: functional; details: read-out: TGI
[30] = Clearance in Sprague-Dawley rat at 10 mg/kg,ip administration by LC-MS/MS analysis; format: ADME, organism-based; details: in vivo
[31] = Toxicity in BALB/C mouse xenografted with human PC-3 cells assessed as histopathological change in kidney at 50 to 100 mg/kg,ip administrated daily for 21 consecutive days by hematoxylin and eosin staining based microscopic analysis; format: organism-based; details: in vivo, dose 50-100 mg/kg
[32] = Toxicity in FVB mouse implanted with mouse Myc-CaP cells assessed as histopathological change in kidney at 10 to 50 mg/kg,ip administrated daily for 14 consecutive days by hematoxylin and eosin staining based microscopic analysis; format: organism-based; details: in vivo, dose 10-50 mg/kg
[33] = tested on: PC-3; test: Antitumor activity against human PC-3 cells xenografted in BALB/C mouse assessed as tumor growth inhibition at 100 mg/kg,ip administrated daily for 21 consecutive days relative to control; format: functional; details: read-out: TGI
[34] = tested on: SGC-7901; test: Antiproliferative activity against human SGC-7901 cells assessed as inhibition of cell growth incubated for 72 hrs by MTT assay; format: functional, cell-based; details: SGC-7901, 72 h
[35] = tested on: HepG2; test: Antiproliferative activity against human HepG2 cells assessed as inhibition of cell growth incubated for 72 hrs by MTT assay; format: functional, cell-based; details: HepG2, 72 h
[36] = tested on: HL-60; test: Antiproliferative activity against human HL-60 cells assessed as inhibition of cell growth incubated for 72 hrs by MTT assay; format: functional, cell-based; details: HL-60, 72 h

IC50 [1]: 1.01 µM
half-life [2]: 3.22 h
inhibition [5]: Active
IC50 [8]: 1.27 µM
Activity [10]: inactive
bioavailability [12]: 31.7%
inhibition [13]: > 50%
inhibition [14]: inactive
AUC(0-t) [16]: 1400 ng·h/mL
IC50 [20]: 1.25 µM
IC50 [23]: 1.35 µM
IC50 [26]: 0.89 µM
AUC(0-t) [27]: 2220 ng·h/mL
IC50 [28]: 4.32 µM
CL/F [30]: 74 mL/min/kg
IC50 [34]: 1.96 µM
IC50 [35]: 1.09 µM
IC50 [36]: 1.89 µM
SMILES: Oc1c(-c2cc(C(F)(F)F)n[nH]2)ccc(C#CCCN2CCOCC2)c1-c1ccc(Cl)c(C(F)(F)F)c1
Activity [3]: Dose-Dependent Effect
Activity [4]: Non-Toxic
IC50 at 72 h [6]: > 100 µM
inhibition in vivo at 30 mg/kg [7]: 67%
inhibition in vivo at 75 mg/kg [9]: 69%
Activity [11]: Non-Toxic
inhibition in vivo at 10 mg/kg [15]: 37%
Activity [17]: Dose-Dependent Effect
Activity [18]: Non-Toxic
Activity [19]: Non-Toxic
Activity [21]: Toxic
Activity [22]: Non-Toxic
inhibition in vivo at 50 mg/kg [24]: 33%
IC50 [25]: 0.55 µM
inhibition in vivo at 50 mg/kg [29]: 85%
Activity [31]: Non-Toxic
Activity [32]: Non-Toxic
inhibition in vivo at 100 mg/kg [33]: 79%
